# Laboratory results: US20050170966A1, “Surfactants and surfactant compositions” (priority 2002, published 2005)
# Key:
# Assay type in all cases: in vivo
# [1] = tested on: mixtures of weeds: Cockspur (Echinochloa crus-galli), Fat-hen (Chenopodium album), Smartweed (Polygonum persicaria); experiment: Field trial: adjuvant effect on Glyphosate herbicidal activity on mixed weed plots; conditions: glyphosate 1080 g(a.e.).ha^-1, adjuvant 540 g.ha^-1 (2:1)
# Experimental: This Example tests the effect of adjuvants on Glyphosate herbicidal activity under field conditions. The herbicide was applied to test plots of weeds at a rate of 1080 g(a.e.).ha^−1 (350 l.ha^−1 of spray containing 3.086 g.l^−1 a.e.) with a weight ratio of active to adjuvant of 2:1=540 g(adjuvant).ha^−1. Spray plots were treated with the herbicide formulations, one of each of four adjuvants of the invention (SE1, SE2, SE3, and SE4) a fatty amine ethoxylate (FAE1) for comparison, or left untreated as controls (no weed control). The spray plots were in a completely randomised block design with 3 replicates of 3×5 m plots. the sprayed plots were sprayed using a compressed-air AZO sprayer at a pressure of 2.5 bar, equipped with Teejet XR80015VS nozzles. During this trial, it rained for about 15 minutes about 2 hours after spraying, giving a good indication of the rainfastness off the formulations tested.
# The test plots used mixtures of the following weeds at the 2 to 4 leaf stage:
# The results of spraying were evaluated by visual comparison with untreated control blocks 12, 20 and 35 days after treatment (DAT), assessing chlorosis (chlor) and growth inhibition (inhib) as percentages with 0=no effect and 100=complete kill as compared with the untreated controls.
# [2] = tested on: Abutilon theophrasti (velvetleaf); experiment: Adjuvants for Glyphosate, test plots, visual score
# Experimental: (§1) In this Example the effect of compounds of the invention as adjuvants for Glyphosate as a herbicide against the species Agropyron repens (couch grass) and Abutilon theophrasti (velvetleaf) using FAE1 as a control adjuvant was tested. Test plots were treated by spraying (spray volume 200 l.ha^−1) at varying doses of glyphosate; 180 and 360 g(a.e.).ha^−1 for A. repens and 250 and 500 g(active).ha^−1 for A. theophrasti and ratios of glyphosate to adjuvant (8:1,4:1 and 2:1 by weight). The effect of the herbicide formulations was assessed by visual comparison with untreated control blocks 6, 13 and 19 days after treatment (DAT), scoring as percentages with 0=no effect and 100=complete kill. The results are set out in Table 2 below
# [3] = tested on: Agropyron repens (couch grass); experiment: Adjuvants for Glyphosate, test plots, visual score
# Experimental: as §1
substance,measurement,setting,value
1-[Bis-(2-hydroxyethyl)-amino]-2-hydroxypropane-3-(Alc1 15-ethoxylate) [SE2],inhib (%) growth inhibition,[1]; 12 DAT,70%
same,chlor (%) chlorosis,"[1]; 12 DAT, 0=no effect, 100=complete kill",68%
same,chlor (%) chlorosis,[1]; 20 DAT,75%
same,inhib (%) growth inhibition,[1]; 20 DAT,75%
same,chlor (%) chlorosis,[1]; 35 DAT,77%
same,inhib (%) growth inhibition,[1]; 35 DAT,77%
same,visual herbicide effect score,"[2]; glyphosate 250 g.ha^-1, ratio 2:1, 6 DAT",25%
same,visual herbicide effect score,"[2]; glyphosate 250 g.ha^-1, ratio 2:1, 13 DAT",32.1%
same,visual herbicide effect score,"[2]; glyphosate 250 g.ha^-1, ratio 2:1, 19 DAT",42.9%
same,visual herbicide effect score,"[2]; glyphosate 250 g.ha^-1, ratio 4:1, 6 DAT",17.9%
same,visual herbicide effect score,"[2]; glyphosate 250 g.ha^-1, ratio 4:1, 13 DAT",28.6%
same,visual herbicide effect score,"[2]; glyphosate 250 g.ha^-1, ratio 4:1, 19 DAT",35.7%
same,visual herbicide effect score,"[2]; glyphosate 250 g.ha^-1, ratio 8:1, 6 DAT",21.4%
same,visual herbicide effect score,"[2]; glyphosate 250 g.ha^-1, ratio 8:1, 13 DAT",28.6%
same,visual herbicide effect score,"[2]; glyphosate 250 g.ha^-1, ratio 8:1, 19 DAT",42.9%
same,visual herbicide effect score,"[2]; glyphosate 500 g.ha^-1, ratio 2:1, 6 DAT",28.6%
same,visual herbicide effect score,"[2]; glyphosate 500 g.ha^-1, ratio 4:1, 6 DAT",28.6%
same,visual herbicide effect score,"[2]; glyphosate 500 g.ha^-1, ratio 8:1, 6 DAT",25%
same,visual herbicide effect score,"[2]; glyphosate 500 g.ha^-1, ratio 8:1, 13 DAT",50%
same,visual herbicide effect score,"[2]; glyphosate 500 g.ha^-1, ratio 8:1, 19 DAT",53.6%
same,visual herbicide effect score,"[3]; glyphosate 180 g.ha^-1, ratio 2:1, 6 DAT",17.9%
same,visual herbicide effect score,"[3]; glyphosate 180 g.ha^-1, ratio 2:1, 13 DAT",46.4%
same,visual herbicide effect score,"[3]; glyphosate 180 g.ha^-1, ratio 2:1, 19 DAT",82.1%
same,visual herbicide effect score,"[3]; glyphosate 180 g.ha^-1, ratio 4:1, 6 DAT",17.9%
same,visual herbicide effect score,"[3]; glyphosate 180 g.ha^-1, ratio 4:1, 13 DAT",39.3%
same,visual herbicide effect score,"[3]; glyphosate 180 g.ha^-1, ratio 4:1, 19 DAT",60%
same,visual herbicide effect score,"[3]; glyphosate 180 g.ha^-1, ratio 8:1, 6 DAT",25%
same,visual herbicide effect score,"[3]; glyphosate 180 g.ha^-1, ratio 8:1, 13 DAT",32.1%
same,visual herbicide effect score,"[3]; glyphosate 180 g.ha^-1, ratio 8:1, 19 DAT",50%
same,visual herbicide effect score,"[3]; glyphosate 360 g.ha^-1, ratio 2:1, 6 DAT",32.1%
same,visual herbicide effect score,"[3]; glyphosate 360 g.ha^-1, ratio 2:1, 13 DAT",60.7%
same,visual herbicide effect score,"[3]; glyphosate 360 g.ha^-1, ratio 2:1, 19 DAT",100%
same,visual herbicide effect score,"[3]; glyphosate 360 g.ha^-1, ratio 4:1, 6 DAT",25%
same,visual herbicide effect score,"[3]; glyphosate 360 g.ha^-1, ratio 4:1, 13 DAT",50%
same,visual herbicide effect score,"[3]; glyphosate 360 g.ha^-1, ratio 4:1, 19 DAT",92.9%
same,visual herbicide effect score,"[3]; glyphosate 360 g.ha^-1, ratio 8:1, 6 DAT",25%
same,visual herbicide effect score,"[3]; glyphosate 360 g.ha^-1, ratio 8:1, 13 DAT",46.4%
same,visual herbicide effect score,"[3]; glyphosate 360 g.ha^-1, ratio 8:1, 19 DAT",78.6%
